Measured values: US10995068B2, “Synthetic sphingolipid-like molecules, drugs, methods of their synthesis and methods of treatment” (The Regents of the University of California, priority 2015, dated 2021)

Assays:
bound NADH fraction = assay: NADH fluorescence lifetime imaging (FLIM); type: cell-based; conditions: mimicked amino acid and glucose starvation
Text: Cells adapt to nutrient limitation by increasing oxidative phosphorylation. The relative rate of glycolysis and oxidative phosphorylation can be monitored by measuring the fluorescence lifetime of the reduced form of nicotinamide adenine dinucleotide (NADH). A higher ratio of protein-bound to free NADH (increased lifetime) correlates with increased oxidative phosphorylation in multiple cell types both in vitro and in vivo. Oligomycin and rotenone/antimycin A are molecules known in the field to induce glycolysis, whereas 2-deoxy-glucose (2DG) is an inhibitor of glycolysis and subsequently increases oxidative phosphorylation. Starvation of cells by removing access to glucose and amino acids is also known to increase oxidative phosphorylation. […]
NADH Fluorescence Lifetime Imaging Microscopy (FLIM). […] The excitation wavelength was 740 nm and a dichroic filter (690 nm) was used to separate the fluorescence signal from the laser light. […] The fluorescence was detected by a hybrid detector (HPM-100 Hamamatsu). […] The FLIM system was calibrated during each imaging session by measuring the fluorescence decay of fluorescein with a single exponential of 4.04 nsec. […] Data was processed by the SimFCS software developed at the Laboratory of Fluorescence Dynamics at UCI. […]

[1] = test system: mouse prostate cancer epithelial cells (mPCE); assay: LDL receptor, LDL uptake and lipid droplets in mPCE cells; type: cell-based
Description: To determine the sensitivity, SH-BC-893 was evaluated in a validated genetically-engineered mouse model for invasive castration-resistant prostate cancer that lacks p53 and PTEN expression exclusively in the prostate (pDKO) (Wu X, et al. Am J Clin Exp Urol. 2014; 2(2):111-20; Schwarzenböck S, et al. Theranostics. 2012; 2(3):318-330; Chen Z, et al. Nature. 2005; 436(7051):725-730; the disclosures of which are herein incorporated by reference). […] SH-BC-893, however, still produced a phenotype consistent with starvation as the bound NADH fraction increased and cell permeant nutrients protected mPCE cells from death (FIGS. 65A and 65C). Prostate cancer cells depend on exogenous LDL for growth and survival. […]
Light Microscopy: Brightfield and epifluorescence microscopy were conducted using a Nikon TE2000-S fluorescence microscope; confocal microscopy was performed on a Zeiss LSM780 confocal microscope or Nikon Eclipse Ti spinning disk confocal microscope. […] Co-localization was determined using JACoP plugin in ImageJ software. Macropinocytosis was measured after 16 h incubation in serum-free DMEM. p53−/−; LSL-K-RasG12D MEFs before (LSL) or after (KRasG12D) introduction of Cre were serum starved for 16 h and then treated with macropinocytosis inhibitor 5-(N-ethyl-N-isopropyl) amiloride (EIPA, 75 μM) for 1 h or SH-BC-893 for 6 h. […]

CCCCCCCCc1ccc([C@H]2CCN[C@@H]2CO)cc1.Cl [Compound 5, (2S,3R)-2-(hydroxymethyl)-3-(4-octylphenyl)Pyrrolidinium chloride]
bound NADH fraction (bound NADH fraction): increasing | surface levels of the LDL receptor (LDLr), LDL uptake, and lipid droplet accumulation [1]: dramatically decreased
